Source: patent US10336766B2, “Anticancer drug candidates” (THE SCRIPPS RESEARCH INSTITUTE, priority 2015, dated 2019)
Where two headings read alike, the source gives them in different places.

Assays:
Assay type in all cases: cell-based, human
[1] = system: breast cancer cells MDA-MB-468; test: In vitro cytotoxic activity, CELLTITER 96 AQueous One Solution (MTS) assay, MDA-MB-468; conditions: 72 h treatment, mean ± SD of 3 replicates, read-out: IC50 cytotoxicity, MDA-MB-468
Procedure: (§1) The in vitro cytotoxic activity (IC50, half maximal inhibitory concentration) of the tiancimycins was tested against selected human cancer cell lines, such as breast cancer cells MDA-MB-468, melanoma cell M14 and SK-MEL-5, non-small cell lung cancer cell NCI-H226, central nervous system cell lines SF-295 and SF-539, and the known enediyne UCM was used as a comparison. Suspended cultures of cells were diluted to a concentration of 5×10^4 cells mL^−1 in RPMI 1640 medium supplemented with 10% fetal bovine serum, 100 μgmL^−1 streptomycin, and 100 UmL^−1 penicillin. The suspended cultures were dispensed into 96-well microtiter plates (100 μL per well) and the plates were incubated for 24 hours at 37° C. in an atmosphere of 5% CO2, 95% air, and 100% humidity. After incubation, original medium was removed and 100 μL of fresh medium was added, followed by adding serial dilutions of the tiancimycins (A, B, and C, 1 μl) and UCM (1 μl) in DMSO. The concentration of the tested compounds was ranged from 0 to 100 nM. Plates were incubated under the above conditions for 72 hours. After incubation, 20 μl CELLTITER 96® AQueous One Solution Reagent (Promega Corp, Madison, Wis., USA) was added to the plates and incubated at 37° C. in a humidified, 5% CO2 atmosphere for 30 to 60 min. The absorbance at 490 nm was recorded using an ELISA plate reader. Each point represents the mean±SD of 3 replicates. The IC50 was determined by computerized curve fitting.
(§2) Antitumor activities were assessed using CELLTITER 96® Aqueous One Solution Proliferation Assay (MTS) (Promega Corp.). Cells were plated in 96-well plate at 5000 cells/well and allowed to adhere overnight at 37° C. in a humidified atmosphere of 5% CO2. Medium was then removed and replaced by fresh culture medium containing different concentrations of different drugs. The cells were treated for 72 h before the assay was developed. All assay values were measured in triplicate.

melanoma cell M14 = test: In vitro cytotoxic activity, CELLTITER 96 AQueous One Solution (MTS) assay, M14; conditions: 72 h treatment, mean ± SD of 3 replicates, read-out: IC50 cytotoxicity, M14
Procedure: as §1, §2

melanoma cell SK-MEL-5 = test: In vitro cytotoxic activity, CELLTITER 96 AQueous One Solution (MTS) assay, SK-MEL-5; conditions: 72 h treatment, mean ± SD of 3 replicates, read-out: IC50 cytotoxicity, SK-MEL-5
Procedure: as §1, §2

[2] = system: non-small cell lung cancer cell NCI-H226; test: In vitro cytotoxic activity, CELLTITER 96 AQueous One Solution (MTS) assay, NCI-H226; conditions: 72 h treatment, mean ± SD of 3 replicates, read-out: IC50 cytotoxicity, NCI-H226
Procedure: as §1, §2

[3] = system: central nervous system cell line SF-295; test: In vitro cytotoxic activity, CELLTITER 96 AQueous One Solution (MTS) assay, SF-295; conditions: 72 h treatment, mean ± SD of 3 replicates, read-out: IC50 cytotoxicity, SF-295
Procedure: as §1, §2

[4] = system: central nervous system cell line SF-539; test: In vitro cytotoxic activity, CELLTITER 96 AQueous One Solution (MTS) assay, SF-539; conditions: 72 h treatment, mean ± SD of 3 replicates, read-out: IC50 cytotoxicity, SF-539
Procedure: as §1, §2

| Compound | IC50 ([1]; Homo sapiens) [nM] | IC50 (melanoma cell M14; Homo sapiens) [nM] | IC50 (melanoma cell SK-MEL-5; Homo sapiens) [nM] | IC50 ([2]; Homo sapiens) [nM] | IC50 ([3]; Homo sapiens) [nM] | IC50 ([4]; Homo sapiens) [nM] | IC50 [1] [nM] | IC50 (melanoma cell M14) [nM] | IC50 (melanoma cell SK-MEL-5) [nM] | IC50 [2] [nM] | IC50 [3] [nM] | IC50 [4] [nM] |
| --- | --- | --- | --- | --- | --- | --- | --- | --- | --- | --- | --- | --- |
| COc1ccc2c(c1O)C(=O)c1c3c(cc(O)c1C2=O)C12O[C@@]1([C@@H](C)O)[C@H](C#C/C=C\C#C[C@H]2O)N3 [TNM A, tiancimycin A] | 0.1 ± 0.01 | 0.14 ± 0.01 | 0.19 ± 0.01 | 2.3 ± 0.1 | 0.14 ± 0.01 | 0.3 ± 0.08 |  |  |  |  |  |  |
| COC(=O)/C=C(\C)[C@@]12OC13c1cc(O)c4c(c1N[C@H]2C#C/C=C\C#C[C@H]3O)C(=O)c1ccccc1C4=O [TNM B, tiancimycin B] | 0.1 ± 0.01 | 0.24 ± 0.01 | 0.19 ± 0.04 | 2.8 ± 0.1 | 0.26 ± 0.02 | 0.23 ± 0.05 |  |  |  |  |  |  |
| COC(=O)C(O)C(C)(O)[C@@]12OC13c1cc(O)c4c(c1N[C@H]2C#C/C=C\C#C[C@H]3O)C(=O)c1c(ccc(O)c1O)C4=O (stereo partly drawn) [TNM C, tiancimycin C] | 0.07 ± 0.01 | 0.25 ± 0.01 | 0.14 ± 0.02 | 3.3 ± 0.3 | 0.28 ± 0.02 | 0.3 ± 0.05 |  |  |  |  |  |  |
| CC(O)[C@@]12O[C@]13c1cc(O)c4c(c1N[C@H]2C#C/C=C\C#C[C@H]3O)C(=O)c1ccccc1C4=O (stereo partly drawn) [UCM, uncialamycin, reference compound] |  |  |  |  |  |  | 0.22 ± 0.03 | 0.47 ± 0.07 | 1.7 ± 0.1 | 4.1 ± 0.2 | 0.51 ± 0.05 | 0.67 ± 0.03 |
